Entries after “also recorded” stand apart in the source; their conditions may differ. Where two headings read alike, the source gives them in different places.
How the values were obtained:
[1] = system: NG108-15 neuroblastoma x glioma cells (m3 AChR); assay: Inhibition of PGE1-stimulated cAMP levels in NG108-15 cells; format: cell-based; conditions: for inhibition at 100 µM: relative to control with no compounds added, conc. of compounds = 100 μM, read-out: cAMP Inhib; for agonist activity, in words: Table I assays; for agonist selectivity, in words: NG108-15 (cAMP) versus SK-N-SH (PI turnover)
Procedure: (§1) Compounds of the present invention were tested for their binding affinities and activation of second messengers in selective muscarinic cholinergic receptor systems. It is believed that m1 -, m4 -, and m5 AChRs couple exclusively to PI turnover, whereas m2 - and m3 -AChRs couple only to adenylate cyclase inhibition.
(§2) Compounds of the present invention were screened for their biological activity. Assay systems using SK-N-SH human neuroblastoma cells which express only m4 -AChRs coupled to PI turnover, and NG108-15 neuroblastoma x glioma cells which express only m3 AChRs coupled to adenylate cyclase inhibition were used.
Inhibition of PGE1 -stimulated cAMP levels in NG108-15 cells
Cells were plated in 24-well plates and were grown to 90% confluence. The growth media was then replaced with a solution of 1 mM IBMX in DMEM-Hepes (0.5 mL per well) and the cells were incubated for 10 min at 37° C. Agonists were then added at a final concentration of 100 μM, along with PGE1 (final conc, 5 μM), and the cells were incubated for a further 15 min at 37° C. The reaction Was terminated by aspirating the solution and adding 0.5 mL of 0.1N HCl. In order to extract the cAMP from the cells, they were incubated in 0.1 N HCl for 30 min at room temperature. An aliquot (35 50 μL) was removed, lyophilized, and assayed for cAMP by radioimmunoassay.

[2] = biological target: T1, muscarinic receptors, NG108-15 cell membranes (m3 AChR) (Mus musculus, UniProt P32211); assay: Inhibition of [3H]-NMS binding to membranes from NG108-15 cells; conditions: for inhibition at 100 µM: NG108-15 cells, conc. of compounds = 100 μM; for binding to muscarinic receptors, in words: 3H-NMS binding, NG108-15 and SK-N-SH membranes
T1 construct: membranes from NG108-15 cells; endogenous in cells; host or cells: NG108-15 neuroblastoma x glioma hybrid cells (crude membrane fraction)
T1 sequence (P32211 1-479): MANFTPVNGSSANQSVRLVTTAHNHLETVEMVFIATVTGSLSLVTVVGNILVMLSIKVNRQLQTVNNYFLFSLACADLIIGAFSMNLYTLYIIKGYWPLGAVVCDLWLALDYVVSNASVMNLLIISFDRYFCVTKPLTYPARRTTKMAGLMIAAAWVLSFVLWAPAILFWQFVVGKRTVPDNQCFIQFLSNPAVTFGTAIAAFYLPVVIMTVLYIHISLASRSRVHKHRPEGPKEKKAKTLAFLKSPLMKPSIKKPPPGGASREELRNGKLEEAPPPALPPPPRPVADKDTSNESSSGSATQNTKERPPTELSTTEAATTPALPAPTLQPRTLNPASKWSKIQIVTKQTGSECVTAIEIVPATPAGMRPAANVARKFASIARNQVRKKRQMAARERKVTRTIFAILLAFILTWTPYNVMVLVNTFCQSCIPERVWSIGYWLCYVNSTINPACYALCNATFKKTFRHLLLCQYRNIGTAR
Source text: as §2
(§3) Compounds of the present invention were also screened for their relative binding affinities. Assay systems which measured the inhibition of ^3 H-N-methylscopolamine (^3 H-NMS) binding to membranes from NG108-15 cells and membranes from SK-N-SH cells were used.
(§4) Inhibition of [^3 H]-NMS binding
(§5) Cells were grown to confluence, harvested, and a crude membrane fraction was obtained. […] The total volume was 1 mL. The incubation was terminated by rapid filtration over GF/B filters using a Brandel cell harvester. The filters were washed three times with ice-cold 0.9% NaCl, equilibrated in scintillation counting fluid and counted on a Beckman LS 5801 liquid scintillation counter at 47% efficiency. Non-specific binding was determined by coincubation with 1 μM atropine, and amounted to less than 15% of total counts. It was routinely subtracted from the total counts.

[3] = biological target: T2, muscarinic receptors, SK-N-SH cell membranes (m4 AChR) (Homo sapiens, UniProt P20309); assay: Inhibition of [3H]-NMS binding to membranes from SK-N-SH cells; conditions: SK-N-SH cells; conc. of compounds = 100 μM
T2 construct: membranes from SK-N-SH cells; endogenous in cells; host or cells: SK-N-SH human neuroblastoma cells (crude membrane fraction)
Source text: as §2, §3, §4, §5

[4] = system: SK-N-SH human neuroblastoma cells (m4 AChR); assay: Stimulation of PI turnover in SK-N-SH cells; format: cell-based; conditions: SK-N-SH cells; for Emax at 100 µM: Homo sapiens, 0.5 h, percent relative to the activity of OXO-M, conc. of compounds = 100 μM, read-out: Pi turnover
Procedure: as §1, §2
Stimulation of PI turnover in SK-N-SH cells
Cells were plated into 24-well plates at 100,000 cells per well. After 24 hours, they were labeled overnight with 2 μCi per well of [^3 H]-myo-inositol (American Radiolabeled Chemicals, Inc., St. Louis, Mo.; 15 Ci/mM; 2 μL of stock per mL of media). The cells were then rinsed twice with 10 mM LiCl in DMEM-Hepes and the cells were incubated in this solution for 5 min at 37° C. The indicated compound was then added at a final concentration of 100 μM and the cells were incubated for another 30 min at 37° C. The reaction was stopped by aspirating the solution and adding cold methanol to the cells. After transferring the cells to a glass tube and sonicating briefly, chloroform and water were added to make a two-phase system. The upper aqueous phase was applied to 0.6 mL anion exchange columns (AG X8, Bio-Rad) and the columns were washed and total inositol phosphates were eluted with 1M ammonium formate and 0.1M formic acid.

T2 sequence (P20309 whole entry): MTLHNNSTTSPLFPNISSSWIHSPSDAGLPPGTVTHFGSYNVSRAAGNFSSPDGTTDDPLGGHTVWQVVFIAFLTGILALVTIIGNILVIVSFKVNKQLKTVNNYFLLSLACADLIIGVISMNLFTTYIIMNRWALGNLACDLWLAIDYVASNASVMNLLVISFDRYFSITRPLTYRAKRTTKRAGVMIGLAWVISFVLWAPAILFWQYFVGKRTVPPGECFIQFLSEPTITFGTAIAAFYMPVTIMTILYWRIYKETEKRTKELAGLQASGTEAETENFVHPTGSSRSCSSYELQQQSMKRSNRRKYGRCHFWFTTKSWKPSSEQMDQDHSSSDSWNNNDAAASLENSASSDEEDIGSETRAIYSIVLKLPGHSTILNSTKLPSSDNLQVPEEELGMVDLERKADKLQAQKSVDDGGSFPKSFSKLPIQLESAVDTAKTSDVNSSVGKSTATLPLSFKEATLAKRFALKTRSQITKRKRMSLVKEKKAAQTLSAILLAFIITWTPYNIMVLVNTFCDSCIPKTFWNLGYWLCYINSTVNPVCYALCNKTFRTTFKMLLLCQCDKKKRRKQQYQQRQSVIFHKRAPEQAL

Row | SMILES | inhibition at 100 µM [2] [%] | inhibition at 100 µM [3] [%] | binding to muscarinic receptors, in words [2] | inhibition at 100 µM ([1]; NG108-15, NG108-15 cells) [%] | agonist activity in NG108-15 cells (cAMP inhibition), in words ([1]; NG108-15 cells) | inhibition at 100 µM ([1]; NG108-15 cells) [%] | agonist activity, in words [1] | agonist selectivity, in words [1] | stimulation of PI turnover, in words [4] | Emax at 100 µM [4] [%]
1 | CN(CC#CCN1CCCC1)C(=O)CCCCCN [Compound 039] | 37.9 ± 3.2 | 55.6 ± 1.9 | – | 14.3 ± 1 | substantial activity | – | – | – | – | –
2 | CN(CC#CCN1CCCC1)C(=O)CCCN [Compound 021] | 12.1 ± 2.2 | 20 ± 1.5 | – | 3.7 ± 2 | – | – | – | – | – | –
3 | CN(CC#CCN1CCCC1)C(=O)CCCNC(=O)c1ccccc1 [Compound 055] | 16 | 27 | – | – | – | 0 | – | – | – | –
4 | CN(CC#CCN1CCCC1)C(=O)CCCCCCCN [Compound 046] | 92.3 ± 3.2 | 93.7 ± 1.8 | most active | – | – | 0 | inactive as agonists | – | – | –
5 | CC(=O)NCCCCCCCC(=O)N(C)CC#CCN1CCCC1 [Compound 048] | 50.4 ± 4.9 | 59.1 ± 0.8 | – | – | – | 0 | – | – | – | –
6 | CN(CC#CCN1CCCC1)C(=O)CN [Compound 007, N-Methyl-N-[4-(1-pyrrolidinyl)-2-butynyl]-2-aminoacetamide] | 23.5 ± 4 | 17.3 ± 3.3 | – | 26.1 ± 1.6 | most active as agonists in NG108-15 cells; also recorded: approximately half as active as the full agonist oxotremorine-M | – | – | selective agonists | inactive in SK-N-SH cells | –
7 | CC(=O)NCC(=O)N(C)CC#CCN1CCCC1 [Compound 010, N-Methyl-N-[4-(1-pyrrolidinyl)-2-butynyl]-2-(N-acetylamino)acetamide] | 24 ± 5.4 | 12.5 ± 2.8 | – | 14.1 ± 2.3 | substantial activity | – | – | – | – | 8 ± 3
8 | CN(CC#CCN1CCCC1)C(=O)CCN [Compound 017] | 15.1 ± 3.5 | 18.1 ± 2.8 | – | 20.8 ± 1.7 | most active as agonists in NG108-15 cells; also recorded: approximately half as active as the full agonist oxotremorine-M | – | – | selective agonists | inactive in SK-N-SH cells | –
9 | CC(=O)NCCCC(=O)N(C)CC#CCN1CCCC1 [Compound 022] | 19.1 ± 1.8 | 15.6 ± 1.6 | – | 8 ± 3.7 | substantial activity | – | – | – | – | 14 ± 5
10 | CN(CC#CCN1CCCC1)C(=O)CNC(=O)OC(C)(C)C [Compound 006, N-Methyl-N-[4-(1-pyrrolidinyl)-2-butynyl]-2-(N-Boc-amino) acetamide] | 32.6 ± 1.5 | 40 ± 2.1 | – | – | substantial activity | 7 ± 2.9 | – | – | – | –
11 | CC(=O)NCCCCCCC(=O)N(C)CC#CCN1CCCC1 [Compound 049] | 20.4 ± 5.5 | 24.6 ± 3.1 | – | – | – | 6.9 ± 2.9 | – | – | – | –
12 | CC(=O)NCCC(=O)N(C)CC#CCN1CCCC1 [Compound 018] | 67.7 ± 3.6 | 67.4 ± 3.3 | – | 10.2 ± 4.8 | – | – | – | – | – | –
13 | CN(CC#CCN1CCCC1)C(=O)CCCCN [Compound 036] | 22.4 ± 3.2 | 34.4 ± 0.3 | – | 15.8 ± 2.7 | substantial activity | – | – | – | – | –
14 | CC(=O)NCCCCC(=O)N(C)CC#CCN1CCCC1 [Compound 040] | 17.9 ± 7.9 | 29.4 ± 1 | – | – | – | 5.2 ± 2.2 | – | – | – | –
15 | CN(CC#CCN1CCCC1)C(=O)CCCCCNC(=O)c1ccccc1 [Compound 054] | 35 | 49 | – | – | – | 0 | – | – | – | –
16 | CN(CC#CCN1CCCC1)C(=O)CCCCCCN [Compound 047] | 72.1 ± 2.7 | 81.9 ± 1 | most active | 3 ± 1.2 | – | – | inactive as agonists | – | – | –

Further lines, with some results ahead:

Row | inhibition at 100 µM [2] [%] | inhibition at 100 µM [3] [%] | binding to muscarinic receptors, in words [2] | SMILES | inhibition at 100 µM ([1]; NG108-15, NG108-15 cells) [%] | agonist activity in NG108-15 cells (cAMP inhibition), in words ([1]; NG108-15 cells) | inhibition at 100 µM ([1]; NG108-15 cells) [%] | agonist activity, in words [1] | agonist selectivity, in words [1] | stimulation of PI turnover, in words [4] | Emax at 100 µM [4] [%]
17 | 89 ± 2.5 | 92.1 ± 1 | most active | CN(CC#CCN1CCCC1)C(=O)CCCCCCCNC(=O)OC(C)(C)C [Compound 043] | – | – | 0 | inactive as agonists | – | – | –
18 | 26.7 ± 1.6 | 32.1 ± 2.1 | – | CN(CC#CCN1CCCC1)C(=O)CCCCNC(=O)OC(C)(C)C [Compound 035] | – | – | 0.5 ± 0.3 | – | – | – | 1 ± 1
19 | 31.9 ± 0.9 | 39.1 ± 2.4 | – | CN(CC#CCN1CCCC1)C(=O)CCCCCNC(=O)OC(C)(C)C [Compound 038] | – | – | 0 | – | – | – | –
20 | 51 | 60 | – | CN(CC#CCN1CCCC1)C(=O)CCCCCNC(=O)CCNC(=O)OC(C)(C)C [Compound 051] | – | – | 0 | – | – | – | –
21 | 51 | 50 | – | CN(CC#CCN1CCCC1)C(=O)CCCCCNC(=O)CNC(=O)OC(C)(C)C [Compound 050] | – | – | 0 | – | – | – | –
22 | 36.3 ± 3.1 | 45.1 ± 2.5 | – | CN(CC#CCN1CCCC1)C(=O)CCNC(=O)OC(C)(C)C [Compound 016] | – | substantial activity | 12.5 ± 2.7 | – | – | – | –
23 | 24.4 ± 2.5 | 32.1 ± 0.7 | – | CN(CC#CCN1CCCC1)C(=O)CCCNC(=O)OC(C)(C)C [Compound 020] | – | – | 3.5 ± 1.7 | – | – | – | –
24 | 22.7 ± 2.8 | 17.4 ± 3.6 | – | CC(=O)NCCCCCC(=O)N(C)CC#CCN1CCCC1 [Compound 041] | – | – | 3 ± 1.7 | – | – | – | 1 ± 1
25 | 23 | 40 | – | CN(CC#CCN1CCCC1)C(=O)CCCNC(=O)CCNC(=O)OC(C)(C)C [Compound 053] | – | – | 0 | – | – | – | –
26 | 77.9 ± 2.4 | 81.4 ± 2.4 | most active | CN(CC#CCN1CCCC1)C(=O)CCCCCCNC(=O)OC(C)(C)C [Compound 045] | – | – | 0 | inactive as agonists | – | – | –
27 | 5 | 40 | – | CN(CC#CCN1CCCC1)C(=O)CCCNC(=O)CNC(=O)OC(C)(C)C [Compound 052, N-Methyl-N-[4-(1-pyrrolidinyl)-2-butynyl]-5-(N-[2-(N-Boc-amino)ethanoyl]amino)butanamide] | – | – | 0 | – | – | – | –
